Patent US11261179B2, “Small molecules” (University of Dundee, priority 2017, dated 2022)
Where “and” joins values, the source holds several entries; their conditions need not be identical. Equal entries are not always repeated. Entries after “also recorded” stand apart in the source; their conditions may differ.

Experiments:
[1] = molecular target: pVHL19 (VCB complex: VHL with Elongin B and Elongin C) (Homo sapiens, UniProt P40337); assay: ITC titration against VCB, short VHL isoform; assay type: binding; conditions: ITC; for Kd / ΔG / ΔH / α (cooperativity/avidity) / −TΔS: pVHL19; for n (stoichiometry): pVHL19, 25° C.
pVHL19 (VCB complex: VHL with Elongin B and Elongin C), sequence (P40337 54-213): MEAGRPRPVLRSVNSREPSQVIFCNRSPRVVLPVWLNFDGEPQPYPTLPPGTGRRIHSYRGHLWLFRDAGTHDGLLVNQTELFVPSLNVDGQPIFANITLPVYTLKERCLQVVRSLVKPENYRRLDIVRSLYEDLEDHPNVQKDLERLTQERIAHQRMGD
pVHL19 (VCB complex: VHL with Elongin B and Elongin C), sequence (Q15370 1-104 partner limits assumed): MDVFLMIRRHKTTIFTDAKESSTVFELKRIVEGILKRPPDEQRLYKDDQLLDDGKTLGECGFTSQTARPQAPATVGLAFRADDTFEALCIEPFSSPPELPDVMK
pVHL19 (VCB complex: VHL with Elongin B and Elongin C), sequence (Q15369 17-112 partner limits assumed): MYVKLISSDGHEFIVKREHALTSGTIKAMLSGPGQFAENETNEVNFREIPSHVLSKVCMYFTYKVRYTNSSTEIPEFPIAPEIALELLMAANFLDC
Experimental: Titrations were performed on an ITC200 micro-calorimeter (GE Healthcare). […] The final DMSO concentration was 0.15% v/v. VBC protein experiments were carried out in a buffer containing 20 mM Bis-tris propane, 150 mM NaCl, 1 mM TCEP, 0.15% v/v DMSO, pH 7.4. The titrations consisted of 19 injections of 2 μL compounds solution (150 μM, in the syringe) at a rate of 2 s/μL at 120 s time intervals into the VCB protein solution (20 μM, in the cell). An initial injection of compound solution (0.4 μL) was made and discarded during data analysis. All experiments were performed at 25° C., whilst stirring the syringe at 600 rpm. The data were fitted to a single binding site model to obtain the stoichiometry n, the dissociation constant Kd and the enthalpy of binding ΔH using the Microcal LLC ITC200 Origin software provided by the manufacturer.

[2] = molecular target: T1, pVHL30 (long isoform of VHL) (Homo sapiens, UniProt P40337); assay: Western blot of VHL levels in HeLa cells; assay type: cell-based
T1 construct: endogenous in cells; host or cells: HeLa
T1 sequence (P40337 whole entry, canonical isoform): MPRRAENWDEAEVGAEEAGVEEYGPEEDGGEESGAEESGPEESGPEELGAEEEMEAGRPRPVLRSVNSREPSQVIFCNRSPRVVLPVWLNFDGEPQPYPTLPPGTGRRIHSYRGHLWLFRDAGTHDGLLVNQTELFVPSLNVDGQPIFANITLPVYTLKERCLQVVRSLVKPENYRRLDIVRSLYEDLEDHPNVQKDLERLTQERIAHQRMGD
Experimental: (§1) For single time point treatment experiments, cells were transferred in 6-well plates with 5×10^5 cells per well in 2 ml media in order to achieve 80% confluence the following day. Stock concentrations of compounds were prepared by solubilizing the powder in 100% v/v DMSO to the final desired stock concentration.
(§2) On the day of treatment, all compound samples were prepared as 100-fold concentrated compound solution using DMEM just before treatment. The experiment samples (20 μL) were added to the 6 well plate containing 2 ml of media. The final DMSO concentration was 0.1% v/v. Cells were incubated at 37° C. and 5% CO2 for the desired time before harvesting.
(§3) For time dependent treatment, cells were transferred in 6-well plates with 3×10^5 cells per well in 2 ml media. Samples were prepared as detailed above or the single time point experiments. Treatment was conducted at given time points prior to harvest.
Cells were transferred in 6-well plates with 5×10^5 cells per well in 2 ml media in order to achieve 80% confluence the day after. At t=0, MLN4924 was added into the desired wells at 3 μM final concentration and 0.1% v/v of DMSO. DMSO (0.1% v/v final conc.) was added to the remaining wells in order to match identical conc. of vehicle in all wells. At t=3 h, MG 132 was added into the desired wells at 50 μM final conc. and 0.1% v/v of DMSO. DMSO (0.1% v/v final conc.) was added to the remaining wells in order to achieve the same conc. of vehicle in all the wells. […] DMSO (0.1% v/v final conc.) was added to the remaining wells in order to obtain the same conc. of vehicle in all the wells. The total final concentration of DMSO was therefore 0.3% v/v. Plates were incubated for 4 h at 37° C. and 5% CO2 before harvesting.
Cells were transferred in 6-well plates with 5×10^5 cells per well in 2 ml media in order to achieve 80% confluence the day after. […] Plates were incubated for the desired time at 37° C. and 5% CO2 before harvesting.
For this experiments, cells were transferred in 6-well plates with 5×10^5 cells per well in 2 ml media in order to achieve 80% confluence the day after. […] Plates were incubated for the desired time at 37° C. and 5% CO2 before harvesting.
(§4) Cells were lysed in lysis buffer (20 mM Tris pH 8, 150 mM NaCl, 1% Triton x100) and a protease inhibitor cocktail (Roche) per 10 ml buffer. For protein extracts, the dishes were placed on ice. The media was aspirated and the tissue layer washed twice with ice-cold phosphate buffer saline (PBS). Lysis buffer (120 μl) was added and the cells detached from the surface with a cell scraper. After removal of the insoluble fraction by centrifugation, the protein concentration of the supernatant was determined by Pierce™ Coomassie (Bradford) Protein Assay Kit. Protein extracts were fractionated by SDS-PAGE on 4-12% Tris-Acetate NuPage® Novex® (Life Technologies) polyacrylamide gels and transferred to a nitrocellulose membrane using wet transfer. The membrane was then blocked with 5% w/v Bovine serum albumin (BSA) in Tris-buffered saline (TBS) with 0.1% w/v Tween-20. For detecting proteins the following primary antibodies in the given concentrations were used: anti-β-Actin (Cell Signaling Technology, 4970S, 13E5) 1:2000, anti-VHL (Cell Signaling Technology, #68547) 1:1000, anti-Hif-1α (BD Biosciences, 610959, clone 54) 1:1000, anti-hydroxy-HIF-1α (Hyp564) (Cell Signaling Techonology; #3434) 1:1000, anti-PHD2 (Bethyl Laboratories; A300-322A) 1:1000, anti-PHD3 (Bethyl Laboratories; A300-327A) 1:1000, anti-CRBN (Proteintech; 11435-1-AP) 1:1000.
(§5) Following incubation with a horseradish peroxidase-conjugated secondary antibody (Cell Signaling Technology), the signal was developed using enhanced chemiluminescence (ECL) Western Blotting Detection Kit (Amersham) on Amersham Hyperfilm ECL film (Amersham).
Band quantification was performed using ImageJ software and reported as relative amount as ratio of the each protein band relative to the lane's loading control. […]

[3] = test system: HIF-1α / hydroxylated HIF-1α (Hdy-HIF-1α); assay: Western blot of HIF-1α and Hdy-HIF-1α levels in HeLa cells; assay type: cell-based, Human; conditions: HeLa, 1 μM, 10 h
Experimental: as §1, §2, §3, §4, §5
(§6) Band quantification was performed using ImageJ software and reported as relative amount as ratio of the each protein band relative to the lane's loading control. The values obtained were then normalized to 0.1% DMSO vehicle control.

pVHL30 = molecular target: T2, pVHL30 (Homo sapiens, UniProt P40337); assay: Western blot of VHL levels in U2OS cells; assay type: cell-based; conditions: for profile of cellular activity: 10 h, 1 nM-100 μM; for cellular efficacy at longer time points / time of treatment to complete degradation of pVHL30: time course
T2 construct: endogenous in cells; host or cells: U2OS
T2 sequence (P40337 whole entry): as the sequence (P40337 whole entry, canonical isoform) above
Experimental: as §1, §2, §3, §4, §5, §6

VCB complex = VCB complex (Homo sapiens, UniProt P40337); assay: Size exclusion chromatography of VCB complex formation; assay type: binding; conditions: SEC, VCB 50 μM, compound 30 μM
VCB complex, sequence (P40337 54-213 limits assumed): as the sequence (P40337 54-213) above
VCB complex, sequence (Q15370 1-104 partner limits assumed): as the sequence (Q15370 1-104 partner limits assumed) above
VCB complex, sequence (Q15369 17-112 partner limits assumed): as the sequence (Q15369 17-112 partner limits assumed) above
Experimental: SEC experiments were carried out in a AKTA pure system (GE Healthcare) at room temperature. The oligomeric state of the VCB complex in solution was analyzed by gel filtration in a buffer containing 20 mM Bis-Tris (pH 7), 150 mM NaCl and 1 mM 1,4-dithiothreitol (DTT) using a Superdex 200 Increase 10/300 GL column (GE Healthcare) calibrated with globular proteins of known molecular weight (GE Healthcare, 28-4038-41/42). […] Sample volume for each injection was 200 μL, and the flow rate was 0.5 mL/min. Peak elution was monitored using ultraviolet absorbance at 280 nm.

[4] = molecular target: T3, VCB (biotinylated VCB and His-VCB) (Homo sapiens, UniProt P40337); assay: AlphaLISA proximity assay of ternary complex formation; assay type: binding; conditions: VCB 20 nM each, 0.5 to 200 nM Homo-PROTAC
T3 construct: His tag (printed 'Hiss-VCB'); biotin (chemical labelling with NHS-PEG4-biotin); on the other VCB population
T3 sequence (P40337 54-213 limits assumed): as the sequence (P40337 54-213) above
T3 sequence (Q15370 1-104 partner limits assumed): as the sequence (Q15370 1-104 partner limits assumed) above
T3 sequence (Q15369 17-112 partner limits assumed): as the sequence (Q15369 17-112 partner limits assumed) above
Experimental: The VCB complex was mixed with EZ-link NHS-PEG4-biotin (Thermo Scientific) in a 1:1 molar ratio and incubated at room temperature for 1 h. The reaction was quenched using 1 M Tris-HCl, pH 7.5, and unreacted NHS-biotin was removed with a PD-10 MiniTrap desalting column (GE Healthcare) equilibrated with 20 mM HEPES, pH 7.5, 150 mM NaCl and 1 mM DTT.
All assays were performed at room temperature in 384-well plates with a final assay volume of 25 μL per well; plates were sealed with transparent film between addition of reagents. All reagents were prepared as 5× stocks diluted in 50 mM HEPES, pH 7.5, 100 mM NaCl, 0.1% (w/v) bovine serum albumin and 0.02% (w/v) 3-[(cholamidopropyl)dimethylammonio]-1-propanesulfonate (CHAPS). Biotinylated VCB (20 nM final) and Hiss-VCB (20 nM final) were incubated with a range of Homo-PROTAC concentrations (0.5 to 200 nM; three-in-five serial dilution) for 1 h. Anti-His acceptor beads (PerkinElmer, 10 μg/mL final) were added and plates were incubated for another hour. Streptavidin-coated donor beads (PerkinElmer, 10 μg/mL final) were added and plates were incubated for a final 1 h. Plates were read on a PHERAstar FS (BMG Labtech) using an optic module with an excitation wavelength of 680 nm and emission wavelength of 615 nm. Intensity values were plotted against PROTAC concentration on a logo scale.

SMILES	Kd [1] [nM]	ΔG [1] [kcal/mol]	ΔH [1] [kcal/mol]	α (cooperativity/avidity) [1]	−TΔS [1] [kcal/mol]	n (stoichiometry) [1]	depletion/degradation of VHL (pVHL30) ([2]; 1 μM, 10 h)	HIF-1α level [3]	protein levels of Hdy-HIF-1α [3]	profile of cellular activity (pVHL30)	cellular efficacy at longer time points (pVHL30)	time of treatment to complete degradation of pVHL30 (pVHL30) [h]	shift of VCB peak / ternary complex formation (VCB complex)	AlphaLISA intensity signal / complex formation [4]	degradation of pVHL over time ([2]; time course, also longer time points)
Cc1ncsc1-c1ccc(CNC(=O)[C@@H]2C[C@@H](O)CN2C(=O)[C@@H](NC(=O)COCCOCCOCCOCCOCC(=O)N[C@H](C(=O)N2C[C@H](O)C[C@H]2C(=O)NCc2ccc(-c3scnc3C)cc2)C(C)(C)C)C(C)(C)C)cc1 [CM10, N^1,N^17-bis((S)-1-((2S,4R)-4-hydroxy-2-((4-(4-methylthiazol-5-yl)benzyl)carbamoyl)pyrrolidin-1-yl)-3,3-dimethyl-1-oxobutan-2-yl)-3,6,9,12,15-pentaoxaheptadecanediamide]	32 ± 5	-10.2 ± 0.1	-9.4 ± 0.1	6	-0.8 ± 0.2	0.7 and 0.73 ± 0.01	total knockdown; also recorded: complete depletion	slight increase	detectable albeit low increase	consistent profile of cellular activity	retained their efficacy	2	formation of a ternary complex eluting at identical retention volume	negligible levels of complex formation	–
Cc1ncsc1-c1ccc(CNC(=O)[C@@H]2C[C@@H](O)CN2C(=O)[C@@H](NC(=O)COCCOCCOCCOCC(=O)N[C@H](C(=O)N2C[C@H](O)C[C@H]2C(=O)NCc2ccc(-c3scnc3C)cc2)C(C)(C)C)C(C)(C)C)cc1 [CM09, N^1,N^14-bis((S)-1-((2S,4R)-4-hydroxy-2-((4-(4-methylthiazol-5-yl)benzyl)carbamoyl)pyrrolidin-1-yl)-3,3-dimethyl-1-oxobutan-2-yl)-3,6,9,12-tetraoxatetradecanediamide]	41 ± 15	-10.3 ± 0.2	-6.9 ± 0.3	4	-3.5 ± 0.5	0.98 ± 0.09	–	slight increase	–	consistent profile of cellular activity	lost its cellular efficacy after 36 h	2	formation of a ternary complex eluting at identical retention volume	negligible levels of complex formation	Incomplete degradation
